{"source": "paper PMC9150124", "about": "“Design of a Potent, Selective, and Brain-Penetrant Inhibitor of Wnt-Deactivating Enzyme Notum by Optimization of a Crystallographic Fragment Hit” (Journal of Medicinal Chemistry, 2022)", "assay_in_all_cases": "SelectScreen kinase profiling, SSBK ZLyte SP Technology", "format_in_all_cases": "biochemical", "key": {"[1]": {"molecular_target": "kinase named in conditions (Homo sapiens, UniProt Q9UBS0)", "details": "RPS6KB2 (p70S6Kb), 10 μM", "method": "(§1) Kinase selectivity screening was performed by Thermo Fisher Scientific (Paisley, U.K.) in their SelectScreen Biochemical Kinase Profiling Service. Assay information and data are presented in the Supporting Information.\n(§2) Kinase selectivity screening was performed by ThermoFisher Scientific (Paisley, U.K.) in their SelectScreenTM\n(§3) Biochemical Kinase Profiling service ."}, "[2]": {"molecular_target": "kinase named in conditions (Homo sapiens, UniProt Q00535)", "sequence (Q00535 whole entry)": "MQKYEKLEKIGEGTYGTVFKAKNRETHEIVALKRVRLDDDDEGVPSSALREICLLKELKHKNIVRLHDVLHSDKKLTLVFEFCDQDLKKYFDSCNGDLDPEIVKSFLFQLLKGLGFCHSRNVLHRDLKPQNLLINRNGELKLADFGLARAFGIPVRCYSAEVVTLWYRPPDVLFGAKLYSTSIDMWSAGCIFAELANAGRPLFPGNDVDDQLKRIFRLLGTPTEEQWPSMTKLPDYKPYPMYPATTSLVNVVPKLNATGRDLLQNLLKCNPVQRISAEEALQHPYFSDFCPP", "method": "as §1, §2, §3"}, "[3]": {"molecular_target": "kinase named in conditions (Homo sapiens, UniProt P22607, V555M)", "details": "FGFR3 V555M, 10 μM", "method": "as §1, §2, §3"}, "[4]": {"molecular_target": "kinase named in conditions (Homo sapiens, UniProt P42345)", "details": "FRAP1 (mTOR), 10 μM", "method": "as §1, §2, §3"}, "[5]": {"molecular_target": "kinase named in conditions (Homo sapiens, UniProt P29597)", "details": "TYK2, 10 μM", "method": "as §1, §2, §3"}, "[6]": {"molecular_target": "kinase named in conditions (Homo sapiens, UniProt O00141)", "details": "SGK (SGK1), 10 μM", "method": "as §1, §2, §3"}, "[7]": {"molecular_target": "kinase named in conditions (Homo sapiens, UniProt Q8WTQ7)", "details": "GRK7, 10 μM", "method": "as §1, §2, §3"}, "[8]": {"molecular_target": "kinase named in conditions (Homo sapiens, UniProt P53350)", "details": "PLK1, 10 μM", "method": "as §1, §2, §3"}, "[9]": {"molecular_target": "kinase named in conditions (Homo sapiens, UniProt Q9P1W9)", "details": "PIM2, 10 μM", "method": "as §1, §2, §3"}, "[10]": {"molecular_target": "kinase named in conditions (Homo sapiens, UniProt Q13153)", "details": "PAK1, 10 μM", "method": "as §1, §2, §3"}, "[11]": {"molecular_target": "kinase named in conditions (Homo sapiens, UniProt P27448)", "details": "MARK3, 10 μM", "method": "as §1, §2, §3"}, "[12]": {"molecular_target": "kinase named in conditions (Homo sapiens, UniProt P00533, G719C)", "details": "EGFR (ErbB1) G719C, 10 μM", "method": "as §1, §2, §3"}, "[13]": {"molecular_target": "kinase named in conditions (Homo sapiens, UniProt Q96BR1)", "details": "SGKL (SGK3), 10 μM", "method": "as §1, §2, §3"}, "[14]": {"molecular_target": "kinase named in conditions (Homo sapiens, UniProt O96013)", "details": "PAK4, 10 μM", "method": "as §1, §2, §3"}, "[15]": {"test_system": "kinase named in conditions", "method": "as §1, §2, §3"}, "[16]": {"molecular_target": "kinase named in conditions (Homo sapiens, UniProt P00519, E255K)", "details": "ABL1 E255K, 10 μM", "method": "as §1, §2, §3"}, "[17]": {"molecular_target": "kinase named in conditions (Homo sapiens, UniProt P10721)", "details": "KIT, 10 μM", "method": "as §1, §2, §3"}, "[18]": {"molecular_target": "kinase named in conditions (Homo sapiens, UniProt P36896)", "details": "ACVR1B (ALK4), 10 μM", "method": "as §1, §2, §3"}, "[19]": {"molecular_target": "kinase named in conditions (Homo sapiens, UniProt Q16566)", "details": "CAMK4 (CaMKIV), 10 μM", "method": "as §1, §2, §3"}, "[20]": {"molecular_target": "kinase named in conditions (Homo sapiens, UniProt O15264)", "details": "MAPK13 (p38 delta), 10 μM", "method": "as §1, §2, §3"}, "[21]": {"molecular_target": "kinase named in conditions (Homo sapiens, UniProt P49759)", "sequence (P49759 whole entry)": "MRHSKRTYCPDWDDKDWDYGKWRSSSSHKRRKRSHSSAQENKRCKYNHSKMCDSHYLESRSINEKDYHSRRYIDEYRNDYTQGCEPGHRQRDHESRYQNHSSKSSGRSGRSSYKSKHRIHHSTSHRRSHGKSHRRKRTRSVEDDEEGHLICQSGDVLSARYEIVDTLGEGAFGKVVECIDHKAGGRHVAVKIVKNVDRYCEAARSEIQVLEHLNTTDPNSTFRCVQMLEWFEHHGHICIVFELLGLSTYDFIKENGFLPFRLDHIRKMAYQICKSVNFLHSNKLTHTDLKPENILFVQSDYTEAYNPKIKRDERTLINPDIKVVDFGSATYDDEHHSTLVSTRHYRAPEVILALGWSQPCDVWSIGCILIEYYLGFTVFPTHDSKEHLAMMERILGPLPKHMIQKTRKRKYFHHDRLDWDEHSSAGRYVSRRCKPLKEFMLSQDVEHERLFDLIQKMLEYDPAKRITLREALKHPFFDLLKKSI", "details": "CLK1, 10 μM", "method": "as §1, §2, §3"}, "[22]": {"molecular_target": "kinase named in conditions (Homo sapiens, UniProt P06493)", "details": "CDK1/cyclin B, 10 μM", "method": "as §1, §2, §3"}, "[23]": {"molecular_target": "kinase named in conditions (Homo sapiens, UniProt P06239)", "sequence (P06239 whole entry)": "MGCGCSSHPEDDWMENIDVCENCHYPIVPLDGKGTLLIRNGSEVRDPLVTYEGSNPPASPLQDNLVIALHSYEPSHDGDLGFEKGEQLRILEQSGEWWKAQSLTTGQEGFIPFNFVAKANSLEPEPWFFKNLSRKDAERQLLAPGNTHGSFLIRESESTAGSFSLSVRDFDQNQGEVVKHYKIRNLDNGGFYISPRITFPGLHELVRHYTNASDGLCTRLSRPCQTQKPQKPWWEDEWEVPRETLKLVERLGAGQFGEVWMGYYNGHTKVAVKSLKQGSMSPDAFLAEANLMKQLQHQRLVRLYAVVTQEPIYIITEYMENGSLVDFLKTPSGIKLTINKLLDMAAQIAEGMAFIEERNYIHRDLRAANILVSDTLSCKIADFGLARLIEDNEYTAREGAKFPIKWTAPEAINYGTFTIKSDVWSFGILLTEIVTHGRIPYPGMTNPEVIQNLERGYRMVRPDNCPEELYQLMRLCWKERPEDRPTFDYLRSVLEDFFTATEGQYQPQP", "details": "LCK, 10 μM", "method": "as §1, §2, §3"}, "[24]": {"molecular_target": "kinase named in conditions (Homo sapiens, UniProt Q9NR20)", "details": "read-out: % Inhibition mean", "method": "as §1, §2, §3"}, "[25]": {"molecular_target": "kinase named in conditions (Homo sapiens, UniProt P00533, L858R)", "sequence (P00533 25-1210 L858R)": "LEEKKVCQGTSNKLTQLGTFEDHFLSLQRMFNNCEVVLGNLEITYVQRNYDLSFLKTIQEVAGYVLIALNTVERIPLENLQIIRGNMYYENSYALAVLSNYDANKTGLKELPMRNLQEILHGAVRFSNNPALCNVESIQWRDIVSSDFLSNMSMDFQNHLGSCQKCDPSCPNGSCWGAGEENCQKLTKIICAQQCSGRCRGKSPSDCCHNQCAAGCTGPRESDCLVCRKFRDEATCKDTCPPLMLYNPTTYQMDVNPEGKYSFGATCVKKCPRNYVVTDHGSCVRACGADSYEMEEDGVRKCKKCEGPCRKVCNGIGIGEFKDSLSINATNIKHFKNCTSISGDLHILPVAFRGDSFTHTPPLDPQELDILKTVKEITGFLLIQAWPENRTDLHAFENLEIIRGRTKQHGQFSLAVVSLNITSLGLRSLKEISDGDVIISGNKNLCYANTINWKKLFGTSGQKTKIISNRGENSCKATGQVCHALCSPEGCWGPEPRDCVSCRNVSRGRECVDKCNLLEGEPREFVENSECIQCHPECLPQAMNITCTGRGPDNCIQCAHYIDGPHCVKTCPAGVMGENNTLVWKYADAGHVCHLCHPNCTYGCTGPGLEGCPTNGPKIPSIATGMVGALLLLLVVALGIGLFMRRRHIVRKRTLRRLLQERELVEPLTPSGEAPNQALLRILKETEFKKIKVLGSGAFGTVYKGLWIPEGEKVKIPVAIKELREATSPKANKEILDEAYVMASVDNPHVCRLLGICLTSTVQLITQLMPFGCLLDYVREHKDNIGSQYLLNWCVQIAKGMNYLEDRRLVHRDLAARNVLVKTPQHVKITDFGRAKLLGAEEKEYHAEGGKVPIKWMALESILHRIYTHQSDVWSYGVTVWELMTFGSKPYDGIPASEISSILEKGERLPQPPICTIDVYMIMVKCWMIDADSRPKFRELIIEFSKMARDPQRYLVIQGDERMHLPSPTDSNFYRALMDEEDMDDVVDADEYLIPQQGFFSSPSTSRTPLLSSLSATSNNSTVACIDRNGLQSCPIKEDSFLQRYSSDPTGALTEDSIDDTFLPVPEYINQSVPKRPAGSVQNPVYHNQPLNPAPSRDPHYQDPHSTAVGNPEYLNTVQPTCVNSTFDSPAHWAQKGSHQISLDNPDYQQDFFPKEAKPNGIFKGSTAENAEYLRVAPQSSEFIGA", "details": "EGFR (ErbB1) L858R, 10 μM", "method": "as §1, §2, §3"}, "[26]": {"molecular_target": "kinase named in conditions (Homo sapiens, UniProt P43250)", "details": "GRK6, 10 μM", "method": "as §1, §2, §3"}, "[27]": {"molecular_target": "kinase named in conditions (Homo sapiens, UniProt P42685)", "sequence (P42685 whole entry)": "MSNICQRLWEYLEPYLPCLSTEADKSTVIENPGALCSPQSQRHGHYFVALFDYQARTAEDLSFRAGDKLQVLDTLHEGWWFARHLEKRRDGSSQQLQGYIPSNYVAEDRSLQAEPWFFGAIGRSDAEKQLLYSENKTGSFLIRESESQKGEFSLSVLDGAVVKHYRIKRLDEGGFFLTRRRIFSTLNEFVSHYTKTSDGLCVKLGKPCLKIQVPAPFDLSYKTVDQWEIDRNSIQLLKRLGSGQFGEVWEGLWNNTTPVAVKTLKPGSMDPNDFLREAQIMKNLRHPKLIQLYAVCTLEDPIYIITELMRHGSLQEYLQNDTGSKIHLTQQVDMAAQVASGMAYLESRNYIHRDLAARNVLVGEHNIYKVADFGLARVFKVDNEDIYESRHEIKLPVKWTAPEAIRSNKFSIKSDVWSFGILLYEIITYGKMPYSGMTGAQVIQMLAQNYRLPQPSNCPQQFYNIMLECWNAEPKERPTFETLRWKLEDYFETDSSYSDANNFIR", "details": "FRK (PTK5), 10 μM", "method": "as §1, §2, §3"}, "[28]": {"molecular_target": "kinase named in conditions (Homo sapiens, UniProt Q13554)", "details": "CAMK2B (CaMKII beta), 10 μM", "method": "as §1, §2, §3"}, "[29]": {"molecular_target": "kinase named in conditions (Homo sapiens, UniProt O00506)", "details": "STK25 (YSK1), 10 μM", "method": "as §1, §2, §3"}, "[30]": {"molecular_target": "kinase named in conditions (Homo sapiens, UniProt P29323)", "sequence (P29323 19-1055)": "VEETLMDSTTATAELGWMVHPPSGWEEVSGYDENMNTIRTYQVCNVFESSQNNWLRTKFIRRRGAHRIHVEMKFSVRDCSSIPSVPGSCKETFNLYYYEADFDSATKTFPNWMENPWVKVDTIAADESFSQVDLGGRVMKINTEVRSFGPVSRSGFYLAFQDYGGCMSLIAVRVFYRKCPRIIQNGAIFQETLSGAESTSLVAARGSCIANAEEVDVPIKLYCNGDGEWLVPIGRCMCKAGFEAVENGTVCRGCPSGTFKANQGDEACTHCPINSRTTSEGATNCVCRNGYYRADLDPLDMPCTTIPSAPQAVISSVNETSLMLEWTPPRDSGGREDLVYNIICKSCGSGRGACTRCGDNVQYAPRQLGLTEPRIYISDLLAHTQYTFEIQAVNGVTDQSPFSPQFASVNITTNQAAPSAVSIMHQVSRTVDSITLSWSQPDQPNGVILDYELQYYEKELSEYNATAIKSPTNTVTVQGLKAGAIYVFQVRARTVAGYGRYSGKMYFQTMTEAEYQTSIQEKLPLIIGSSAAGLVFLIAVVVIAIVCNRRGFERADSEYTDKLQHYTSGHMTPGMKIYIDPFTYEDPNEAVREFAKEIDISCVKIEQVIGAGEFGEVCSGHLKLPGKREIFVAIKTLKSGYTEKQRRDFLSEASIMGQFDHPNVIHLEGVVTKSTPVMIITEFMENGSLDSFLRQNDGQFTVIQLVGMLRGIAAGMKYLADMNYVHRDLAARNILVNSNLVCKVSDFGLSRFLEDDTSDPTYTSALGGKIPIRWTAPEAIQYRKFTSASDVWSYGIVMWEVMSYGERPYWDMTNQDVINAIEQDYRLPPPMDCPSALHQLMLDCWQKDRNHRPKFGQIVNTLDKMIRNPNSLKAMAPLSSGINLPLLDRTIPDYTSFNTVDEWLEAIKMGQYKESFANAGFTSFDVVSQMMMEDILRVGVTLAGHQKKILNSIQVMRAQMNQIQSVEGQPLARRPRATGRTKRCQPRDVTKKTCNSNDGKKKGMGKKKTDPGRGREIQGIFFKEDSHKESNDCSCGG", "details": "EPHB2, 10 μM", "method": "as §1, §2, §3"}, "[31]": {"molecular_target": "kinase named in conditions (Homo sapiens, UniProt Q96GD4)", "sequence (Q96GD4 whole entry)": "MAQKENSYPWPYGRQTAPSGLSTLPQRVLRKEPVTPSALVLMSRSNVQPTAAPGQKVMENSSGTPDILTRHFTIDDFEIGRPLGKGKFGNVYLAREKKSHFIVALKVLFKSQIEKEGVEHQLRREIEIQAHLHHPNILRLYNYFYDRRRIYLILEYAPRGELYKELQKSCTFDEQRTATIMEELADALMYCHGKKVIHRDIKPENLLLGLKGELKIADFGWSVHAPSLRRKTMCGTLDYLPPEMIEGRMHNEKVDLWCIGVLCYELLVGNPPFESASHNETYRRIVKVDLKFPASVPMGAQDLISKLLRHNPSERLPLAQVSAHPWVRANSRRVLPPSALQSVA", "details": "AURKB (Aurora B), 10 μM", "method": "as §1, §2, §3"}, "[32]": {"molecular_target": "kinase named in conditions (Homo sapiens, UniProt P10721, V560G)", "details": "KIT V560G, 10 μM", "method": "as §1, §2, §3"}, "[33]": {"molecular_target": "kinase named in conditions (Homo sapiens, UniProt P41279)", "sequence (P41279 whole entry)": "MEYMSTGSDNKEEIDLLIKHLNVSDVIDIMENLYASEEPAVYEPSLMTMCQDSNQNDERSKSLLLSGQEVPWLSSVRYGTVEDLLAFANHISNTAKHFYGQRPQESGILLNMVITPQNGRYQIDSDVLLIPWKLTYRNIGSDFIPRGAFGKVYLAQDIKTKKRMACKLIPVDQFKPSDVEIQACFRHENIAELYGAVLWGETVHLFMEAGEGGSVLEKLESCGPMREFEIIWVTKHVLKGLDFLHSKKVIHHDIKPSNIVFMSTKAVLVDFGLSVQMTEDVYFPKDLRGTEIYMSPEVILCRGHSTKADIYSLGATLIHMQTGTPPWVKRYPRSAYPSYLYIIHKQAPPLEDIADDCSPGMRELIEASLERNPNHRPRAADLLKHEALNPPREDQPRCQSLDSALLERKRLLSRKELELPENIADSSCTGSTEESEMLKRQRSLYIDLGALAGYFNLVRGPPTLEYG", "details": "MAP3K8 (COT), 10 μM", "method": "as §1, §2, §3"}, "[34]": {"molecular_target": "kinase named in conditions (Homo sapiens, UniProt Q9UPE1)", "details": "STK23 (MSSK1), 10 μM", "method": "as §1, §2, §3"}}, "data": [{"smiles": "FC(F)(F)c1c(Cl)ccc(-n2ccnn2)c1Cl", "note": "[8l, 1-(2,4-Dichloro-3-(trifluoromethyl)phenyl)-1H-1,2,3-triazole]", "values": [{"measurement": "inhibition at 10 µM", "setting": "[1]", "result": 4, "unit": "%"}, {"measurement": "inhibition at 10 µM", "setting": "[2]; CDK5/p25, 10 μM", "result": 1, "unit": "%"}, {"measurement": "inhibition at 10 µM", "setting": "[2]; CDK5/p35, 10 μM", "result": 7, "unit": "%"}, {"measurement": "inhibition at 10 µM", "setting": "[3]", "result": -14, "unit": "%"}, {"measurement": "inhibition at 10 µM", "setting": "[4]", "result": 4, "unit": "%"}, {"measurement": "inhibition at 10 µM", "setting": "[5]", "result": 7, "unit": "%"}, {"measurement": "inhibition at 10 µM", "setting": "[6]", "result": 5, "unit": "%"}, {"measurement": "inhibition at 10 µM", "setting": "[7]", "result": 0, "unit": "%"}, {"measurement": "inhibition at 10 µM", "setting": "[8]", "result": 13, "unit": "%"}, {"measurement": "inhibition at 10 µM", "setting": "[9]", "result": 5, "unit": "%"}, {"measurement": "inhibition at 10 µM", "setting": "[10]", "result": 23, "unit": "%"}, {"measurement": "inhibition at 10 µM", "setting": "[11]", "result": 3, "unit": "%"}, {"measurement": "inhibition at 10 µM", "setting": "[12]", "result": 5, "unit": "%"}, {"measurement": "inhibition at 10 µM", "setting": "[13]", "result": 10, "unit": "%"}, {"measurement": "inhibition at 10 µM", "setting": "[14]", "result": 2, "unit": "%"}, {"measurement": "% Inhibition mean", "setting": "[15]; LYN B, 10 μM", "result": 7, "unit": "%"}, {"measurement": "% Inhibition mean", "setting": "[15]; PRKCB2 (PKC beta II), 10 μM", "result": -17, "unit": "%"}, {"measurement": "% Inhibition mean", "setting": "[15]; SRC N1, 10 μM", "result": 4, "unit": "%"}, {"measurement": "inhibition at 10 µM", "setting": "[16]", "result": 13, "unit": "%"}, {"measurement": "inhibition at 10 µM", "setting": "[17]", "result": -7, "unit": "%"}, {"measurement": "inhibition at 10 µM", "setting": "[18]", "result": -12, "unit": "%"}, {"measurement": "inhibition at 10 µM", "setting": "[19]", "result": 15, "unit": "%"}, {"measurement": "inhibition at 10 µM", "setting": "[20]", "result": -2, "unit": "%"}, {"measurement": "inhibition at 10 µM", "setting": "[21]", "result": 0, "unit": "%"}, {"measurement": "inhibition at 10 µM", "setting": "[22]", "result": 4, "unit": "%"}, {"measurement": "inhibition at 10 µM", "setting": "[23]", "result": 33, "unit": "%"}, {"measurement": "inhibition at 10 µM", "setting": "[24]", "result": 1, "unit": "%"}, {"measurement": "inhibition at 10 µM", "setting": "[25]", "result": 2, "unit": "%"}, {"measurement": "inhibition at 10 µM", "setting": "[26]", "result": 2, "unit": "%"}, {"measurement": "inhibition at 10 µM", "setting": "[27]", "result": 1, "unit": "%"}, {"measurement": "inhibition at 10 µM", "setting": "[28]", "result": 4, "unit": "%"}, {"measurement": "inhibition at 10 µM", "setting": "[29]", "result": 5, "unit": "%"}, {"measurement": "inhibition at 10 µM", "setting": "[30]", "result": 2, "unit": "%"}, {"measurement": "inhibition at 10 µM", "setting": "[31]", "result": 7, "unit": "%"}, {"measurement": "inhibition at 10 µM", "setting": "[32]", "result": 3, "unit": "%"}, {"measurement": "inhibition at 10 µM", "setting": "[33]", "result": 0, "unit": "%"}, {"measurement": "inhibition at 10 µM", "setting": "[34]", "result": 0, "unit": "%"}]}]}
